Common to all, as to assay type: in vivo
Series [1] concerns Beet Armyworm (Spodoptera exigua, LAPHEG). Put plainly: Bioassays on Beet Armyworm (BAW), 128-well diet tray assay. The following applies: Spodoptera exigua; for mortality at 50 µg/cm2: 168 h, second instar larvae, 50 μg/cm^2 of test molecule on artificial diet, 25° C., five to seven days, average of eight wells, read-out: BAW % Control (or Mortality) rating. The procedure, abridged:
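Test molecule was dissolved in 90:10 acetone-water and applied at 50 μg/cm^2 onto artificial diet in eight wells, then dried. Second instar larvae, one to five per well, were added, and trays were kept vented at 25° C. with a 14:10 photoperiod for five to seven days before mortality was recorded.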

Series [2] has as its system Cabbage Looper (Trichoplusia ni, TRIPNI). Put plainly: Bioassays on Cabbage Looper (CL), 128-well diet tray assay. The following applies: Trichoplusia ni; for mortality at 50 µg/cm2: 168 h, second instar larvae, 50 μg/cm^2 of test molecule on artificial diet, 25° C., five to seven days, average of eight wells, read-out: CL % Control (or Mortality) rating. The procedure, abridged: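 Activity is mean percent mortality over eight wells of second-instar larvae exposed to diet treated at 50 μg/cm^2 for 5–7 days at 25° C.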

In series [3] the test system is Yellow Fever Mosquito (Aedes aegypti, AEDSAE). The following applies: for YFM rating: Table ABC / ABC-DP rating; for YFM % Control (or Mortality) rating: about 1 day-old larvae, 4000 ppm master solution diluted with 90:10 water/acetone, 15 μL per well plus 220 μL larval mixture, 3 days. The procedure, abridged:
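Compounds from 4000 ppm DMSO stocks were diluted in 90:10 water/acetone and dispensed into wells, then infested with about 1-day-old larvae in liver-powder water. Covered plates were held at room temperature for 3 days and each well was scored for mortality against a rating scale; six replicate plates per compound.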

The mark [4] stands for this setting: Beet Armyworm, rating class, read-out: BAW.
Setting [5] is: Cabbage Looper, rating class, read-out: CL.
Setting [6] is: Yellow Fever Mosquito, rating class.
[7] abbreviates: Table ABC: Biological Results, species BAW, read-out: BAW.
Setting [8] is: Table ABC: Biological Results, species CL, read-out: CL.
Setting [9] is: Table ABC: Biological Results, species YFM.
[10] abbreviates: Beet Armyworm, Table ABC / ABC-DP rating, read-out: BAW rating.
[11] abbreviates: Cabbage Looper, Table ABC / ABC-DP rating, read-out: CL rating.

Read-outs that look alike come from different tables or passages of the source.

Take `O=C(Nc1ccc(F)c(NC(=O)C(C(F)(F)F)C(F)(F)F)c1F)c1cc(NC(=O)[C@H]2[C@H](c3ccc(Cl)c(Cl)c3)C2(Cl)Cl)ccc1Cl` [F1607, 2-Chloro-5-((1R,3R)-2,2-dichloro-3-(3,4-dichlorophenyl)cyclopropane-1-carboxamido)-N-(2,4-difluoro-3-(3,3,3-trifluoro-2-(trifluoromethyl)propanamido)phenyl)benzamide]: the pest or weed control at 50 µg/cm2 in series [1] (setting [4]) and in series [2] (setting [5]) was 50 to 100% in each case. In addition, the YFM entry in series [3] (setting [6]) was “A (80–100)”.

Consider `C=Cc1cc(F)cc(F)c1NC(=O)c1cc(NC(=O)[C@H]2[C@H](c3cc(Cl)cc(Cl)c3)C2(Cl)Cl)ccc1Cl` (relative stereo) [F1316, trans-2-Chloro-5-(2,2-dichloro-3-(3,5-dichlorophenyl)cyclopropane-1-carboxamido)-N-(2,4-difluoro-6-vinylphenyl)benzamide], for which the pest or weed control at 50 µg/cm2 in series [1] (setting [7]) and in series [2] (setting [8]) was 50 to 100% in each case. The YFM result in series [3] (setting [9]) was “A (80–100)”.

On to `O=C(CC1CC1)Nc1c(F)ccc(NC(=O)c2cc(NC(=O)[C@H]3[C@H](c4ccc(F)c(C(F)(F)F)c4)C3(Cl)Cl)ccc2Cl)c1F` [F1682, 2-Chloro-N-(3-(2-cyclopropylacetamido)-2,4-difluorophenyl)-5-((1R,3R)-2,2-dichloro-3-(4-fluoro-3-(trifluoromethyl)phenyl)cyclopropane-1-carboxamido)benzamide], for which the pest or weed control at 50 µg/cm2 in series [1] (setting [4]) and in series [2] (setting [5]) was 50 to 100% in each case. In series [3] (setting [6]), the YFM result is “A (80–100)”.

In general, mortality refers to the share of the test organisms that died. Consider `O=C(NN=Cc1ccccn1)c1cc(NC(=O)[C@H]2[C@H](c3cc(Cl)cc(Cl)c3)C2(Cl)Cl)ccc1Cl` (relative stereo) [F3002, trans-2,2-Dichloro-N-(4-chloro-3-(2-(pyridin-2-ylmethylene)hydrazine-1-carbonyl)phenyl)-3-(3,5-dichlorophenyl)cyclopropane-1-carboxamide], for which the mortality at 50 µg/cm2 in series [1] and in series [2] was 50 to 100% each time. Further, the pest or weed control at 50 µg/cm2 in series [1] (setting [10]) and in series [2] (setting [11]) was 50 to 100% in each case. In series [3] (Yellow Fever Mosquito), the YFM rating entry is reported as “A (80–100)”. Moreover, the “YFM % Control (or Mortality) rating” value in series [3] is “A (80–100)”.

With `O=C(Nc1ccccc1)c1c(Cl)ccc(NC(=O)[C@H]2[C@H](c3ccc(F)c(Cl)c3)C2(Cl)Cl)c1F` [F1466, 6-Chloro-3-((1R,3R)-2,2-dichloro-3-(3-chloro-4-fluorophenyl)cyclopropane-1-carboxamido)-2-fluoro-N-phenylbenzamide], the pest or weed control at 50 µg/cm2 in series [1] (setting [4]) and in series [2] (setting [5]) was 50 to 100% each time. Further, the YFM result in series [3] (setting [6]) is recorded as “A (80–100)”.

With `CC(F)(F)CNC(=O)c1cc(NC(=O)C2C(c3cc(Cl)cc(Cl)c3)C2(Cl)Cl)cc(F)c1Cl` (stereo not drawn) [F2087], the pest or weed control at 50 µg/cm2 in series [1] (setting [10]) and in series [2] (setting [11]) was 50 to 100% in each case. The YFM rating result in series [3] (Yellow Fever Mosquito) is “A (80–100)”.

Consider `CN(NC(=O)c1cc(NC(=O)[C@H]2[C@H](c3cc(Cl)cc(Cl)c3)C2(Cl)Cl)ccc1Cl)c1cc(C(F)(F)F)ccn1` (relative stereo) [F2507, trans-2,2-Dichloro-N-(4-chloro-3-(2-methyl-2-(4-(trifluoromethyl)pyridin-2-yl)hydrazine-1-carbonyl)phenyl)-3-(3,5-dichlorophenyl)cyclopropane-1-carboxamide], for which the pest or weed control at 50 µg/cm2 in series [1] (setting [10]) and in series [2] (setting [11]) was 50 to 100% throughout. For the same molecule, the YFM rating entry in series [3] (Yellow Fever Mosquito) is “A (80–100)”.

`Nc1c(F)ccc(NC(=O)c2cc(NC(=O)[C@H]3[C@H](c4cccc(F)c4)C3(Cl)Cl)ccc2Cl)c1F` (relative stereo) [F1596, trans-N-(3-Amino-2,4-difluorophenyl)-2-chloro-5-(2,2-dichloro-3-(3-fluorophenyl)cyclopropane-1-carboxamido)benzamide]: the pest or weed control at 50 µg/cm2 in series [1] (setting [4]) and in series [2] (setting [5]) was 50 to 100% throughout. Moreover, in series [3] (setting [6]), the YFM result was “A (80–100)”.

As for `O=C(CCC(F)(F)F)Nc1c(F)ccc(NC(=O)c2cc(NC(=O)[C@H]3[C@H](c4ccc(F)c(Cl)c4)C3(Cl)Cl)ccc2Cl)c1F` [F1848, 2-Chloro-5-((1R,3R)-2,2-dichloro-3-(3-chloro-4-fluorophenyl)cyclopropane-1-carboxamido)-N-(2,4-difluoro-3-(4,4,4-trifluorobutanamido)phenyl)benzamide], the pest or weed control at 50 µg/cm2 in series [1] (setting [10]) and in series [2] (setting [11]) was 50 to 100% in each case. In addition, the YFM rating result in series [3] (Yellow Fever Mosquito) is on record as “A (80–100)”.

Consider `O=C(Nc1ccc(F)c(NC(=O)C(F)F)c1F)c1cc(NC(=O)[C@H]2[C@H](c3ccc(Cl)cc3)C2(Cl)Cl)ccc1Cl` (relative stereo) [F1599, trans-2-Chloro-5-(2,2-dichloro-3-(4-chlorophenyl)cyclopropane-1-carboxamido)-N-(3-(2,2-difluoroacetamido)-2,4-difluorophenyl)benzamide], for which the pest or weed control at 50 µg/cm2 in series [1] (setting [4]) and in series [2] (setting [5]) was 50 to 100% throughout. In series [3] (setting [6]), the YFM result is given as “A (80–100)”.

As for `O=C(NN=CCC(F)(F)F)c1cc(NC(=O)[C@H]2[C@H](c3cc(Cl)cc(Cl)c3)C2(Cl)Cl)ccc1Cl` (relative stereo) [F3008, trans-2,2-Dichloro-N-(4-chloro-3-(2-(3,3,3-trifluoropropylidene)hydrazine-1-carbonyl)phenyl)-3-(3,5-dichlorophenyl)cyclopropane-1-carboxamide], the mortality at 50 µg/cm2 in series [1] and in series [2] was 50 to 100% throughout. The pest or weed control at 50 µg/cm2 in series [1] (setting [10]) and in series [2] (setting [11]) was 50 to 100% in each case. Further, in series [3] (Yellow Fever Mosquito), the YFM rating entry was “A (80–100)”. Also, in series [3], the “YFM % Control (or Mortality) rating” value was “A (80–100)”.

On to `Nc1c(F)ccc(NC(=O)c2cc(NC(=O)[C@H]3[C@@H](c4cc(F)c(F)c(Br)c4)C3(Cl)Cl)ccc2Cl)c1F` (relative stereo) [F1045, cis-N-(3-Amino-2,4-difluorophenyl)-5-(3-(3-bromo-4,5-difluorophenyl)-2,2-dichlorocyclopropane-1-carboxamido)-2-chlorobenzamide], for which the pest or weed control at 50 µg/cm2 in series [1] (setting [7]) and in series [2] (setting [8]) was 50 to 100% in each case. Besides, in series [3] (setting [9]), the YFM entry was “A (80–100)”.

As for `Cc1cc(NCc2ccc(OC(F)(F)F)cc2)ccc1NC(=O)c1cc(NC(=O)[C@H]2[C@H](c3cc(Cl)cc(Cl)c3)C2(Cl)Cl)ccc1Cl` (relative stereo) [F1117, trans-2-Chloro-5-(2,2-dichloro-3-(3,5-dichlorophenyl)cyclopropane-1-carboxamido)-N-(2-methyl-4-((4-(trifluoromethoxy)benzyl)amino)phenyl)benzamide], the pest or weed control at 50 µg/cm2 in series [1] (setting [7]) and in series [2] (setting [8]) was 50 to 100% throughout. Also, the YFM result in series [3] (setting [9]) is reported as “A (80–100)”.

Regarding `CC(OC(F)(F)F)C(=O)Nc1c(F)ccc(NC(=O)c2cc(NC(=O)[C@H]3[C@H](c4cccc(C(F)(F)F)c4)C3(Cl)Cl)ccc2Cl)c1F` (stereo partly drawn) [F1775, 2-Chloro-5-((1R,3R)-2,2-dichloro-3-(3-(trifluoromethyl)phenyl)cyclopropane-1-carboxamido)-N-(2,4-difluoro-3-(2-(trifluoromethoxy)propanamido)phenyl)benzamide], the pest or weed control at 50 µg/cm2 in series [1] (setting [10]) and in series [2] (setting [11]) was 50 to 100% throughout. For the same molecule, the YFM rating entry in series [3] (Yellow Fever Mosquito) is reported as “A (80–100)”.

Turning to `COc1c(F)cc(NC(=O)[C@H]2[C@H](c3ccc(F)c(Cl)c3)C2(Cl)Cl)cc1C(=O)NCC(F)(F)F` (relative stereo) [F2058, trans-5-(2,2-Dichloro-3-(3-chloro-4-fluorophenyl)cyclopropane-1-carboxamido)-3-fluoro-2-methoxy-N-(2,2,2-trifluoroethyl)benzamide], the pest or weed control at 50 µg/cm2 in series [1] (setting [10]) and in series [2] (setting [11]) was 50 to 100% in each case. The YFM rating result in series [3] (Yellow Fever Mosquito) was “A (80–100)”.

As to `CC(=O)Nc1c(F)cc(F)c(NC(=O)c2cc(NC(=O)[C@H]3[C@H](c4cc(Cl)cc(Cl)c4)C3(Cl)Cl)ccc2Cl)c1F` [F1628, N-(3-Acetamido-2,4,6-trifluorophenyl)-2-chloro-5-((1R,3R)-2,2-dichloro-3-(3,5-dichlorophenyl)cyclopropane-1-carboxamido)benzamide], the pest or weed control at 50 µg/cm2 in series [1] (setting [4]) and in series [2] (setting [5]) was 50 to 100% throughout. In addition, the YFM entry in series [3] (setting [6]) is given as “A (80–100)”.

For `O=C(NCCCCNC(=O)C(F)(F)F)c1cc(NC(=O)[C@H]2[C@H](c3cc(Cl)cc(Cl)c3)C2(Cl)Cl)ccc1Cl` (relative stereo) [F2095, trans-2-Chloro-5-(2,2-dichloro-3-(3,5-dichlorophenyl)cyclopropane-1-carboxamido)-N-(4-(2,2,2-trifluoroacetamido)butyl)benzamide], the pest or weed control at 50 µg/cm2 in series [1] (setting [10]) and in series [2] (setting [11]) was 50 to 100% throughout. In series [3] (Yellow Fever Mosquito), the YFM rating result is recorded as “A (80–100)”.

(Values after patent US20250228239A1, “MOLECULES HAVING PESTICIDAL UTILITY, AND INTERMEDIATES, COMPOSITIONS, AND PROCESSES, RELATED THERETO” (priority 2024, published 2025).)
